We go through one molecule from patent publication US20200079786A1, “ANALOGS OF […] AS SOLUBLE EPOXIDE HYDROLASE INHIBITORS” (UNIVERSITAT DE BARCELONA, priority 2015, published 2020).

The target in data set [1] is CYP2C19 (Homo sapiens, UniProt P33261). As to the kind of experiment: Inhibition of human cytochrome P450 CYP2C19. The data set is classed as in vitro ADME. To be noted: human cytochrome P450 enzyme. The source says:
The epoxidation of arachidonic acid (AA) by selected cytochrome P450 epoxygenases generates epoxyeicosatrienoic acids (EETs). These EETs show anti-inflammatory, antihypertensive, analgesic, angiogenic, and antiatherosclerotic effects in rodents and humans. sEH converts EETs to their corresponding dihydroxyeicosatrienoic acids (DHETs), whereby the biological effects of EETs are diminished, eliminated, or altered. Among the P450 enzymes, it is known that CYP2C19 and CYP1A2 have the highest formation rate of EETs from AA (cf. A. A. El-Sherbeni et al. “Repurposing resveratrol and fluconazole to modulate human cytrochrome P450-mediated arachidonic acid metabolites”, Molecular Pharmaceutics 2016, vol. 13, pp. 1278-1288). For this reason, a highly desirable aspect of any new sEH inhibitor is selectivity in front of CYP2C19 and CYP1A2.

Data set [2] concerns Huh-7 cells. Nature of the data set: Amelioration of palmitate-induced ER stress: ATF3, BiP and CHOP mRNA by real-time PCR. The data set is classed as cell-based. To be noted: palmitate 0.5 mM + inhibitor 1 μM, 48 h. The method, then:
Huh-7 cells were maintained in a humid atmosphere of 5% CO2 at 37° C. in high glucose (25 mM) Dulbecco's modified Eagle's medium supplemented with 10% heat-inactivated fetal bovine serum, 1% of penicillin/streptomycin (10.000 units/mL of penicillin and 10.000 μg/mL of streptomycin) and 1% of amphotericin B (250 μg/mL).
Huh-7 cells were serum-starved overnight prior treatment. […] For RNA extraction, cells were pre-treated with the inhibitors (final concentration 1 μM) for 1 hour before treatment with palmitate (final concentration 0.5 mM) and inhibitors (final concentration 1 μM). For each condition, at least 3 replicates were performed. Following 48 hours of incubation, RNA were extracted as described below.
Total RNA in hepatocytes was harvested by TRIsure (Bioline) according to the manufacturer's instructions. The extracted RNA was dissolved in RNase-free water and concentrations of total RNA were quantified using a NanoDrop 2000c spectrophotometer (Thermo Scientific). First-stranded cDNA was synthesized from 0.5 μg total RNA (Life Technologies). […] The PCR reaction contained 10 ng of reverse-transcribed RNA, 2× IQ™ SYBRGreen Supermix (BioRad, Barcelona, Spain) and 900 nmol/L concentration of each primer. Optical primer amplification efficiency for each primer set was assessed and a dissociation protocol was carried out to assure a single PCR product. PCR assays were performed on a MiniOpticon™ Real-Time PCR system (BioRad). Thermal cycling conditions were as follows: activation of Taq DNA polymerase at 95° C. for 10 min, followed by 40 cycles of amplification at 95° C. for 15 sec and 60° C. for 1 min. The relative levels of specific mRNA were estimated from the value of the threshold cycle (Ct) of the real-time PCR adjusted by that of a housekeeping gene (GAPDH) through the formula […] (ΔCt=Gene of interest Ct-GAPDH Ct). Cf.
Background: Quantitative PCR measures a nucleic acid by following its amplification.

A short description of data set [3]: Determination of water solubility (nephelometry). The conditions noted are these: aqueous with cosolvent or surfactant or cyclodextrin, kinetic from dmso stock; 5% DMSO: 95% PBS buffer, 37° C., read after 2 and 4 h; read-out: S (solubility). The data set is classed as physicochemical.
Data set [4] concerns the target T1, recombinant human sEH (Homo sapiens, UniProt P34913).
T1 construct: purchased Cayman Chemical 10011669
T1 sequence (P34913 1-555): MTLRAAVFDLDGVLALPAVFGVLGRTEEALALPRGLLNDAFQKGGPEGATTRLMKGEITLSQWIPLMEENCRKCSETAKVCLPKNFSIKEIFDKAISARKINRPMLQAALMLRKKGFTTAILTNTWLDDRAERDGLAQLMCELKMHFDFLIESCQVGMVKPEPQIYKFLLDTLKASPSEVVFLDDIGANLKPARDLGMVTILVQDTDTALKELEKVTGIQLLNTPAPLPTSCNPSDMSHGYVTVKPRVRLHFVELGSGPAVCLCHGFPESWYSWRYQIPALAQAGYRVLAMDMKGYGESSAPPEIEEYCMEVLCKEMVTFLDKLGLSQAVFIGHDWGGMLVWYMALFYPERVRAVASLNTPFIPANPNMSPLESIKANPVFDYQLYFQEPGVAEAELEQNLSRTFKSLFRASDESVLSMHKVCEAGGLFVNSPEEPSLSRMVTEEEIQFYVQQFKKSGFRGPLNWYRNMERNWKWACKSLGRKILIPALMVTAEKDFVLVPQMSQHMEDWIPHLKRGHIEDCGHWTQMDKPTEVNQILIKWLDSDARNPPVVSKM
As to the kind of experiment: In vitro determination of sEH inhibition activity (fluorescent assay, PHOME substrate). The data set is classed as biochemical. To be noted: mean ± Standard Error, min. three replicates, read-out: IC50 (nM) ± SE, sEH inhibition activity. Here is the method: 3-(Phenyl-oxiranyl)-acetic acid cyano-(6-methoxy-naphthalen-2-yl)-methyl ester (PHOME; from Cayman Chemical, item number 10009134; CAS 1028430-42-3); cf. N. M. Wolf et al., Anal. Biochem. 2006, vol. 355, pp. 71-80.
Solutions: • Assay buffer: Bis/Tris HCl 25 mM pH 7.0 containing 0.1 mg/mL of bovine serum albumin (BSA). • PHOME at 200 μM in DMSO. • Solution of recombinant human sEH (Cayman Chemical, item number 10011669), diluted with assay buffer. • Inhibitors dissolved in DMSO at appropriated concentrations.
In a black 96-well plate (Greiner Bio-One, item number 655900), fill the background wells with 90 μL and the positive control and inhibitor wells with 85 μL of assay buffer. Add 5 μL of DMSO to background and positive control wells, and then add 5 μL of inhibitor solution in inhibitor wells. Add 5 μL of the solution of hsEH to the positive control and inhibitor wells and mix several time. Prepare a 1/21 dilution of the solution of PHOME with assay buffer according to final volume required, and then add 105 μL of each well. Shake carefully the plate for 10 seconds and incubate for 5 minutes at room temperature. […] Results were obtained by regression analysis from at least three data points in a linear region of the curve. IC50 values are average of minimum three independent replicates.

Data set [5] is described as follows: Parallel artificial membrane permeation assay for blood-brain barrier (PAMPA-BBB). The conditions noted are these: PBS:EtOH (70:30). It counts as in vitro ADME, porcine. Here is the method:
The in vitro permeability (Pe) of the test compounds through lipid extract of porcine brain membrane was determined. Assayed compounds were tested using a mixture of PBS:EtOH (70:30). […] From this equation and taking into account the limits established by Di et al. for BBB permeation, the ranges of permeability were established, as follows.

Sequence of CYP2C19 (P33261 whole entry): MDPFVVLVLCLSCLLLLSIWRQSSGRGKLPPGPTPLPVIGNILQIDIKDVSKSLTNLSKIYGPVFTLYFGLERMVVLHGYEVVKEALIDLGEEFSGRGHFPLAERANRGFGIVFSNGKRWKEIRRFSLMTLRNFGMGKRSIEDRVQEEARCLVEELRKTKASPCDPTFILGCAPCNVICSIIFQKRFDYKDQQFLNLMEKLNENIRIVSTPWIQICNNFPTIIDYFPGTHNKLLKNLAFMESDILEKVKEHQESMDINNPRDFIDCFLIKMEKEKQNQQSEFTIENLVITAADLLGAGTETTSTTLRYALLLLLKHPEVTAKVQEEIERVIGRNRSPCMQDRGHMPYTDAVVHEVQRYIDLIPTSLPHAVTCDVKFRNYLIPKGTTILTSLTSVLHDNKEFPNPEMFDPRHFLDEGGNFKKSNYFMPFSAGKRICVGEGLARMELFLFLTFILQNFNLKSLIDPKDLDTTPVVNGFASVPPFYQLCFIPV

For `O=C(N[C@]12CC3C[C@@H](C[C@H](C3)O1)C2)N[C@H]1CC[C@H](Oc2ccc(C(=O)O)cc2)CC1` [Ig, trans-1-(2-oxaadamantan-1-yl)-3-[4-(4-carboxyphenoxy)cyclohexyl]urea], in data set [1], the inhibition (commonly the share of the control response that was lost under treatment) at 1 µM was no more than 6%. Besides, the “Level of CHOP mRNA” value in data set [2] (control (CT) = 100.0, PAL alone 224.5) is 147.6 ± 15.9^(##). The “Level of BiP mRNA” value in data set [2] (control (CT) = 100.0, PAL alone 242.9) is reported as 174.9 ± 31.4^(#). Moreover, the “Level of ATF3 mRNA” value in data set [2] (control (CT) = 100.0, PAL alone 585.5) is reported as 286.7 ± 59.9^(###). The solubility (usually the concentration that dissolves in the medium under given conditions) in data set [3] was greater than 100 µM. The IC50 (in general, the midpoint of a concentration-inhibition curve) in data set [4] amounted to 13.4 ± 4 nM. Also, the CNS prediction result in data set [5] was “CNS+ (Compounds of high BBB permeation (CNS+): Pe (10^6 cm s^−1)>5.181)”.
